Earlier results, collected in patent US20210134402A1, “METHODS AND SYSTEMS FOR PREDICTING SUCCESS RATES OF CLINICAL TRIALS” (THE TRUSTEES OF COLUMBIA UNIVERSITY IN THE CITY OF NEW YORK, priority 2018, published 2021).

Details: trial in follicular lymphoma

## Nc1ccccc1NC(=O)c1ccc(CNc2nccc(-c3cccnc3)n2)cc1 [mocetinostat]
  side effects observed in the trial: anaemia, neutropenia, nausea, and diarrhea
  trial status: put on hold due to toxicity concerns
